Experimental data published in ChEMBL document CHEMBL1201862, “PubChem BioAssay data set” (2004).
The source made the active and inactive calls.

Experiments:
Fatty acid synthase [1] = biological target: T1, Fatty acid synthase (Homo sapiens, UniProt P49327); test: FAS thioesterase domain inhibitors, dose response, biochemical, endpoint fluorescence intensity, uHTS hits (AID 624327); assay type: functional;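 also: fluorescence from hydrolysis of an O-methyl fluorescein acyl ester substrate by the enzyme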
T1 sequence (P49327 whole entry, the tested form may be a part): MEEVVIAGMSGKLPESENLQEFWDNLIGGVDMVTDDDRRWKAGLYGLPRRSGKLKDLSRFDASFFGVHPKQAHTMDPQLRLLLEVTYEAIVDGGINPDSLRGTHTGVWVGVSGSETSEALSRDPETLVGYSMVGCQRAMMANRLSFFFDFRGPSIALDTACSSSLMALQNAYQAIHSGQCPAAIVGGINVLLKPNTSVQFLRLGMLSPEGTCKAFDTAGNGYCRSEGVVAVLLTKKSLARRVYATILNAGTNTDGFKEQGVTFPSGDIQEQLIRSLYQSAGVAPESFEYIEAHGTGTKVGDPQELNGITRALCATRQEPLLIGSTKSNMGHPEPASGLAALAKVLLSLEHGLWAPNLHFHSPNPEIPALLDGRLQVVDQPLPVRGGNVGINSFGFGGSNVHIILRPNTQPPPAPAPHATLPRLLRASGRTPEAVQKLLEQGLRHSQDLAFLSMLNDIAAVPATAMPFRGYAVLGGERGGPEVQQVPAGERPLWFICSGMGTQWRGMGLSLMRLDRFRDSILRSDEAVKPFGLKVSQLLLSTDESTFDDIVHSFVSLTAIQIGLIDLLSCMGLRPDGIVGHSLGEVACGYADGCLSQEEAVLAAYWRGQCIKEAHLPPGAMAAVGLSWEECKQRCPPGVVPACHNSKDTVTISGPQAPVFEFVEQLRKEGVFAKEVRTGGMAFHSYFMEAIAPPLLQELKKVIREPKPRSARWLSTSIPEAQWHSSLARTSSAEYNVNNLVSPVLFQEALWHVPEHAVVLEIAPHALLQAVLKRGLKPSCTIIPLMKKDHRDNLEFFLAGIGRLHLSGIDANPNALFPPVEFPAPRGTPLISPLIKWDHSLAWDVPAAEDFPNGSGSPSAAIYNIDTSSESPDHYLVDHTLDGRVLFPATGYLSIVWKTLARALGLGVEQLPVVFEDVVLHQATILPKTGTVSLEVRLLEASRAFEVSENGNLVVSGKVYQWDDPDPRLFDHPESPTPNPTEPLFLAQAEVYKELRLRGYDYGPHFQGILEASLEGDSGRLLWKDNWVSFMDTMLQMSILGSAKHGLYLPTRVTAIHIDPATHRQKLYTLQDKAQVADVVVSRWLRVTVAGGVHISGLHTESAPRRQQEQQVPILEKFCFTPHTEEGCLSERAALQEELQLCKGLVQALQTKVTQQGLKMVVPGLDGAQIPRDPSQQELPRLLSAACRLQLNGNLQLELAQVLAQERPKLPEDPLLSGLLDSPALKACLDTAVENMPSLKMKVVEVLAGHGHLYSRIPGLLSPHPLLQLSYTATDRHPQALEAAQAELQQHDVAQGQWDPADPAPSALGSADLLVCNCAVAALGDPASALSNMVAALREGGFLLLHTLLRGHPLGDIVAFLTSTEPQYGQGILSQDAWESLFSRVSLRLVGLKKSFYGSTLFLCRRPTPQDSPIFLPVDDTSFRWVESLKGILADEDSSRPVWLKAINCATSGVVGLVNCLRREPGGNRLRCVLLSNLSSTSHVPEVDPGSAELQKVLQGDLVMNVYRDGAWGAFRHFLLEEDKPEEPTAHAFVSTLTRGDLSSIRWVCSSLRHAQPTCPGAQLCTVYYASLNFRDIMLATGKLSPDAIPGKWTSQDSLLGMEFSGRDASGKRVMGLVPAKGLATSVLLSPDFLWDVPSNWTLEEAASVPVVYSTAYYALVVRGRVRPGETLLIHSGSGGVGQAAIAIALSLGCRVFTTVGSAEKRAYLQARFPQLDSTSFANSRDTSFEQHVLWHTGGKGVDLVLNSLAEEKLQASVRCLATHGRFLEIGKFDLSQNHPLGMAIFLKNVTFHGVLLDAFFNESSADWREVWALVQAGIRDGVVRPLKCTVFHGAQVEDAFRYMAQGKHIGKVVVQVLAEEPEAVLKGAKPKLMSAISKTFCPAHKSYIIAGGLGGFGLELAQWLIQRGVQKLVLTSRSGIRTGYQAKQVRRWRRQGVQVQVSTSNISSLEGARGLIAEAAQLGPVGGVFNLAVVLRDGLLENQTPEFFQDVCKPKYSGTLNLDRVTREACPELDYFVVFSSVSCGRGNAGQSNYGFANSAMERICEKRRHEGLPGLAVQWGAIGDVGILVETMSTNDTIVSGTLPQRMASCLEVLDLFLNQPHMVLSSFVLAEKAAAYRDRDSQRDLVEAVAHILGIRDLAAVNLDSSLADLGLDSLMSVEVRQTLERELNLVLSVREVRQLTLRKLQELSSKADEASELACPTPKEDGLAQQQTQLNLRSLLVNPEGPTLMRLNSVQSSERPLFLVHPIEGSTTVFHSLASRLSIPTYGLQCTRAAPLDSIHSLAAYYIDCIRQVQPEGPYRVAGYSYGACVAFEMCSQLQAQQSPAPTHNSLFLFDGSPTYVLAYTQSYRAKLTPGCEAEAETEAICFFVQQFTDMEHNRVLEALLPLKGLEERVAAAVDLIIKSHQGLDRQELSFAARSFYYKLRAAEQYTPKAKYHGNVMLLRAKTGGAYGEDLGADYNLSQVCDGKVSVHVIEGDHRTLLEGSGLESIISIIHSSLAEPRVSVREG

Fatty acid synthase [2] = biological target: T1, Fatty acid synthase; test: FAS thioesterase domain inhibitors, dose response, biochemical, kinetic fluorescence intensity (AID 624326); assay type: functional;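 also: rate of fluorescence rise from hydrolysis of a fluorogenic O-methyl fluorescein ester substrate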
[3] = growth suppression of beta-catenin-knockout colon cells, dose response, cell-based, HCT116, human colon tumor (AID 1045); assay type: functional;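 also: HCT116 colon tumor cells with beta catenin knocked out; cells exposed to compound for 60 hours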
[4] = growth suppression of PTEN-null colon cells, dose response, cell-based, HCT116 PTEN knockout (AID 1047); assay type: functional;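 also: HCT116 colon tumor cells with PTEN knocked out; cells exposed to compound for 60 hours before readout; potency for loss of cell viability measured by luminescence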
[5] = inhibitors of intracellular T. cruzi replication, confirmation, NIH3T3 host cells, beta-gal luminescence (AID 2044); assay type: functional, cell-based;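 also: intracellular parasites grown in NIH/3T3 mouse fibroblasts as host cells; luminescent beta-galactosidase reporter signal from transgenic T. cruzi replicating inside host cells; inhibitors lower the luminescence signal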
[6] = cytotoxicity toward NIH3T3 fibroblasts, dose response, counter-screen, cell-based, ATP luminescence, mouse fibroblasts (AID 2010); assay type: functional;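 also: cells exposed to compound for about 90 hours before reading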
[7] = biological target: T2, Corticotropin-releasing factor receptor 2/Corticotropin-releasing factor-binding protein (Homo sapiens, UniProt P24387+Q13324); test: Dose Response confirmation of uHTS hits for small molecule antagonists of the CRF-binding protein and CRF-R2 receptor complex.; assay type: functional; conditions: read-out: IC50_Mean
T2 sequence (Q13324 whole entry): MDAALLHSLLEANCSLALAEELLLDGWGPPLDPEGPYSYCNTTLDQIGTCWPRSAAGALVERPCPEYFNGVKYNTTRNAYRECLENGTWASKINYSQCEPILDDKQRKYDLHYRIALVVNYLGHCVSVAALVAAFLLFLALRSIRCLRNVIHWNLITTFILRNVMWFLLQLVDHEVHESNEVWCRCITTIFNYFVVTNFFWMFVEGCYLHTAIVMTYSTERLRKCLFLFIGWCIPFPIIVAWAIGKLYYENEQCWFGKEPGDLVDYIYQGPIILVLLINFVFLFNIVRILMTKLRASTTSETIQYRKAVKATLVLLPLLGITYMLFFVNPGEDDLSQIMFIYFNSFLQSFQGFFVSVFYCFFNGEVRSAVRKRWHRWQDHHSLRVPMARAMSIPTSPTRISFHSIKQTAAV
T2 sequence (P24387 whole entry): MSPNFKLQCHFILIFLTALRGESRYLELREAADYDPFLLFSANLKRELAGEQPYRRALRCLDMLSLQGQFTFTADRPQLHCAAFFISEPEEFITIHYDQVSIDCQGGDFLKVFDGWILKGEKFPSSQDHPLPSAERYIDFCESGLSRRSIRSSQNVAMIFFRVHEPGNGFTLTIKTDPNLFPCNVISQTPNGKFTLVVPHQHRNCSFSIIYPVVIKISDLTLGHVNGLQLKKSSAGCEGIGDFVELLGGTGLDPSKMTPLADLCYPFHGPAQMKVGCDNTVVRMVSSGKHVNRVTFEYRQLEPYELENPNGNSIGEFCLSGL

[8] = biological target: T2, Corticotropin-releasing factor receptor 2/Corticotropin-releasing factor-binding protein; test: activators of CRF receptor 2 with binding protein – uHTS hits, confirmation (AID 602473); assay type: functional; conditions: read-out: EC50_Mean
INS1 = test: beta cell apoptosis inhibitors, cytokine rescue, dose response, luminescence, retest (AID 449756); assay type: functional, cell-based; conditions: Rattus norvegicus;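 also: cell death triggered by IL-1 beta plus TNF-alpha plus IFN-gamma mixture; protective hits raise ATP signal compared with cytokine alone wells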
[9] = HEp-2 cell cytotoxicity, dose response, cytotoxicity control for RSV inhibitor project, HTS (AID 2410); assay type: functional; conditions: human respiratory syncytial virus
Cytochrome P450 2D6 = Cytochrome P450 2D6 (Homo sapiens, UniProt P10635);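 also: CYP2D6 member of a cytochrome P450 panel assay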
Chain of Cytochrome P450 2D6 (P10635 whole entry): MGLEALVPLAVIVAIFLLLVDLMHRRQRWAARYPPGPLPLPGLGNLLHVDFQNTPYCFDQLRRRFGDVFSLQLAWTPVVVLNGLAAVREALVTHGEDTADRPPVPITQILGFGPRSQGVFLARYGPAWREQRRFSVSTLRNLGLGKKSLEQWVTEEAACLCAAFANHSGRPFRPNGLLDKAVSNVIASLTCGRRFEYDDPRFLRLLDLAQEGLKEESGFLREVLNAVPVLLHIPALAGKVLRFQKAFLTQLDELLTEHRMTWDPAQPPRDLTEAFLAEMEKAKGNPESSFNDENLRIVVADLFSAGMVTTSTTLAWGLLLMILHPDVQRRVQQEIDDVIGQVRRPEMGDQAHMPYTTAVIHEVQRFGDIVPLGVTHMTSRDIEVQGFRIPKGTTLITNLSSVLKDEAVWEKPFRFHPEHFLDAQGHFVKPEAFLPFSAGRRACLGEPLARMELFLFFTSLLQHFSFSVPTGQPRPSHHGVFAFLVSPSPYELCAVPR

Row | SMILES | IC50 (Fatty acid synthase [1]) | IC50 (Fatty acid synthase [2]) | EC50 [3] | EC50 [4] | further results
1 | O=C(CC1C[C@H](C(=O)N2CCOCC2)[C@@]2(CCC3CCCC3)c3[nH]c4ccccc4c3CCN2C1=O)NCCN1CCOCC1 (stereo partly drawn) | 2.6 µM (active) | 2.17 µM (active) | – | – | –
2 | O=[N+]([O-])c1ccccc1-c1cc(-c2cc(Cl)ccc2O)n[nH]1 | – | – | 27 µM (active) | 19.5 µM (active) | –
3 | CC(Cc1cccs1)NC(=O)Nc1ccc(Cl)c(Cl)c1 (stereo not drawn) | – | – | 22.6 µM (active) | 17.4 µM (active) | –
4 | NC(=S)N/N=C/c1ccc(-c2ccc(SC(F)F)cc2)o1 | 16.9 µM (active) | 80 µM (inactive) | – | – | EC50 [5]: 0.895 µM (active); EC50 [6]: 12.7 µM (active); IC50 [7]: > 47.1 µM (inactive); EC50 [8]: > 53 µM (inactive)
5 | CCCCNC(=O)C1CC(c2c(Cl)cccc2Cl)=NO1 (stereo not drawn) | – | – | 29.6 µM (active) | 21.8 µM (active) | –
6 | CCN(CC)S(=O)(=O)c1ccc(N2CCc3ccccc3C2)nc1 | 4.19 µM (active) | 9.71 µM (active) | – | – | –
7 | Fc1ccc(-n2c(Cc3ccccc3)nnc2SCc2nc(-c3ccc(Cl)cc3)no2)cc1 | 14 µM (active) | 8.88 µM (active) | – | – | –
8 | O=C(/C=C/c1cccc([N+](=O)[O-])c1)NCCc1ccc(F)cc1 | 10.7 µM (active) | 11.8 µM (active) | – | – | –
9 | Cc1ccn2c(=O)nc(SCC(=O)N3N=C(c4cccs4)CC3c3ccc(F)cc3)nc2c1 (stereo not drawn) | 13.9 µM (active) | 10.3 µM (active) | – | – | EC50 [5]: 1.35 µM (active); EC50 [6]: > 60 µM (not active)
10 | O=C(c1cc2cc3ccc(Cl)cc3nc2o1)N1CCCCCC1 | 18.7 µM (active) | 15.6 µM (active) | – | – | –
11 | O=C(CNc1cccc2ccccc12)N/N=C/C(Br)=C/c1ccccc1 | – | – | 25.8 µM (active) | 22.9 µM (active) | –
12 | Nc1c(C(=O)Nc2ccc(S(=O)(=O)N3CCCC3)cc2)sc2nc3cc4c(cc3cc12)CCC4 | – | – | 4.81 µM (active) | 4.9 µM (active) | AC50 (INS1): 3.29 µM (active); CC50 [9]: 27.9 µM (active)
13 | Cc1ccc(OCC(=O)Nc2ccc(O)c(-c3nc4ccccc4o3)c2)cc1 | – | – | 32.7 µM (active) | 26.8 µM (active) | –
14 | Cc1cc(C)c(Cn2cnc(-c3ccc([N+](=O)[O-])cc3)c2)c(C)c1 | 12.9 µM (active) | 12.6 µM (active) | – | – | AC50 (Cytochrome P450 2D6): 28.2 µM (inconclusive)
15 | Cc1c(C)c2ccc(OCC(=O)N3CCN(c4ccccc4)CC3)cc2oc1=O | 5.34 µM (active) | 6.95 µM (active) | – | – | –
16 | O=C(COC(=O)c1[nH]nc2ccccc12)NC(=O)NC12CC3CC(CC(C3)C1)C2 | – | – | 22.1 µM (active) | 14.8 µM (active) | –
17 | Cc1noc(C)c1NC(=O)Nc1cccc2c1O[C@H](CN(C)C(=O)Nc1ccccc1)[C@@H](C)CN([C@H](C)CO)C2=O | 13 µM (active) | 9.53 µM (active) | – | – | –
